Reference: PMC6321168, “Comparative Study on Excretive Characterization of Main Components in Herb Pair Notoginseng-Safflower and Single Herbs by LC–MS/MS” (Pharmaceutics, 2018)

Test: Urinary excretion study in rats after oral NS, SF or CNS (LC–MS/MS)
Assay type: in vivo
Details: for concentration at 2 h / concentration at 4 h / concentration at 8 h / concentration at 12 h / concentration at 24 h / concentration at 36 h / concentration at 48 h / concentration at 72 h / concentration at 96 h / concentration at 120 h / concentration at 6 h: male, Sprague Dawley, rat, urine, oral; for Accumulative excretion amount / Accumulative excretion percentage / Excretion amount: rat urine
Experimental: The animal room was set at constant temperature of 20 ± 2 °C with humidity of 50 ± 20% and 12/12 h light/dark cycle.
Eighteen male rats were fasted for 12 h before starting the experiment. The rats were divided into three groups at random (n = 6) and received NS (60 mg/kg), SF (50 mg/kg), and NS (60 mg/kg) + SF (50 mg/kg), respectively, by oral gavage. The rats were placed in separate metabolic cages. The urine samples were collected at 0–2, 2–4, 4–6, 6–8, 8–12, 12–24, 24–36, 36–48, 48–72, 72–96, and 96–120 h. The feces samples were collected at 0–4, 4–8, 8–12, 12–24, 24–36, 36–48, 48–72, 72–96, and 96–120 h. The urine volume was recorded and the dry feces were measured for each collection period. Samples were stored at −80 °C until analysis.
An aliquot of 200 μL urine sample was mixed with 10 μL of IS and evaporated to dryness with a ZLS-2 vacuum centrifugal concentrator (Herexi Co., Ltd., Changsha, Hunan, China). The residue was reconstituted in 100 μL of 50% methanol vortexed for 2 min and centrifuged at 12,000 rpm for 15 min. Finally, a 1 μL aliquot was injected for LC–MS analysis.
Ultra fast liquid chromatography (UFLC) analysis was performed using a Shimadzu UFLC system (DGU-20A3R Degasser; LC-20AD pump; SIL-20AXR Autosampler; CTO-20AC Column Oven) (Nakagyo-Ku, Koyoto, Japan). […] Because of the different endogenous substances in the urine and feces samples, different elution gradients were used to alleviate the matrix effects for the analytes.
The mass spectrometric detection was performed on an ABSciex 4500 Qtrap mass spectrometer (ABSciex, Foster City, CA, USA) equipped with a negative electrospray ionization (ESI) interface using multiple reaction monitoring (MRM). The MS parameters were optimized under the selected ion monitoring conditions as follows: curtain gas, 35 psi; ionspray voltage, 4500 V; turbo gas temperature, 450 °C; GS1, 45 psi; GS2, 45 psi. All data were acquired and analyzed by Analyst software (Versions 1.6.2) from ABSciex.
The accumulative excretion percentage was calculated for each analyte as follows. Excretion at time (t) = [concentration of the analyte (ng/mL) at t] × total urine (or feces) volume (mL) at t. The cumulative excretion up to time t (mg) was expressed as a percent (%) cumulative excretion by dividing by the total amount of the analyte ingested (mg): % Cumulative Excretion = 100 × (Σt excretiont) total ingested.

With `CC(C)=CCC[C@](C)(O[C@@H]1O[C@H](CO)[C@@H](O)[C@H](O)[C@H]1O)[C@H]1CC[C@]2(C)[C@@H]1[C@H](O)C[C@@H]1[C@@]3(C)CC[C@H](O)C(C)(C)[C@@H]3[C@@H](O[C@@H]3O[C@H](CO)[C@@H](O)[C@H](O)[C@H]3O[C@@H]3O[C@@H](C)[C@H](O)[C@@H](O)[C@H]3O)C[C@]12C` [ginsenoside Re] the concentration at 2 h (60 mg/kg, oral NS 60 mg/kg, 2 h) was 289 ± 689 ng/mL, the concentration at 4 h (60 mg/kg, oral NS 60 mg/kg, 4 h) was 91 ± 119 ng/mL and the concentration at 8 h (60 mg/kg, oral NS 60 mg/kg, 8 h) was 40 ± 26 ng/mL. The concentration at 12 h (60 mg/kg, oral NS 60 mg/kg, 12 h) was 33 ± 24 ng/mL, the concentration at 24 h (60 mg/kg, oral NS 60 mg/kg, 24 h) was 17 ± 34 ng/mL and the concentration at 36 h (60 mg/kg, oral NS 60 mg/kg, 36 h) was 15 ± 23 ng/mL. It also gave a concentration at 48 h (60 mg/kg, oral NS 60 mg/kg, 48 h) of 13 ± 24 ng/mL, a concentration at 72 h (60 mg/kg, oral NS 60 mg/kg, 72 h) of 17 ± 37 ng/mL and a concentration at 96 h (60 mg/kg, oral NS 60 mg/kg, 96 h) of 7 ± 13 ng/mL. For the same molecule, the concentration at 120 h (60 mg/kg, oral NS 60 mg/kg, 120 h) was 4 ± 8 ng/mL, the concentration at 2 h (oral CNS 110 mg/kg, 2 h) was 86 ± 88 ng/mL and the concentration at 4 h (oral CNS 110 mg/kg, 4 h) was 70 ± 89 ng/mL. For the same molecule, the concentration at 6 h (oral CNS 110 mg/kg, 6 h) was 39 ± 27 ng/mL, the concentration at 8 h (oral CNS 110 mg/kg, 8 h) was 41 ± 35 ng/mL and the concentration at 12 h (oral CNS 110 mg/kg, 12 h) was 35 ± 41 ng/mL. The concentration at 24 h (oral CNS 110 mg/kg, 24 h) was 369 ± 963 ng/mL, the concentration at 36 h (oral CNS 110 mg/kg, 36 h) was 24 ± 38 ng/mL and the concentration at 48 h (oral CNS 110 mg/kg, 48 h) was 6 ± 7 ng/mL. It also gave a concentration at 72 h (oral CNS 110 mg/kg, 72 h) of 5 ± 7 ng/mL, a concentration at 96 h (oral CNS 110 mg/kg, 96 h) of 3 ± 5 ng/mL and a concentration at 120 h (oral CNS 110 mg/kg, 120 h) of 4 ± 8 ng/mL. It also gave a concentration at 6 h (oral NS 60 mg/kg, 6 h) of 32 ± 30 ng/mL, an Accumulative excretion amount (oral CNS 110 mg/kg, 2 h) of 0.133 ± 0.062 µg and an Accumulative excretion percentage (oral CNS 110 mg/kg, 2 h) of 0.028±0.013%. It also gave an Accumulative excretion amount (oral CNS 110 mg/kg, 4 h) of 0.193 ± 0.131 µg, an Accumulative excretion percentage (oral CNS 110 mg/kg, 4 h) of 0.041±0.028% and an Excretion amount (oral CNS 110 mg/kg, 4 h) of 0.100 ± 0.090 µg. It also gave an Accumulative excretion amount (oral CNS 110 mg/kg, 6 h) of 0.231 ± 0.118 µg, an Accumulative excretion percentage (oral CNS 110 mg/kg, 6 h) of 0.049± 0.025% and an Excretion amount (oral CNS 110 mg/kg, 6 h) of 0.064 ± 0.030 µg. The Accumulative excretion amount (oral CNS 110 mg/kg, 8 h) was 0.289 ± 0.121 µg, the Accumulative excretion percentage (oral CNS 110 mg/kg, 8 h) was 0.061±0.026% and the Excretion amount (oral CNS 110 mg/kg, 8 h) was 0.072 ± 0.033 µg. For the same molecule, the Accumulative excretion amount (oral CNS 110 mg/kg, 12 h) was 0.324 ± 0.110 µg, the Accumulative excretion percentage (oral CNS 110 mg/kg, 12 h) was 0.069±0.023% and the Excretion amount (oral CNS 110 mg/kg, 12 h) was 0.035 ± 0.015 µg. It also gave an Accumulative excretion amount (oral CNS 110 mg/kg, 24 h) of 0.381 ± 0.153 µg, an Accumulative excretion percentage (oral CNS 110 mg/kg, 24 h) of 0.081±0.032% and an Excretion amount (oral CNS 110 mg/kg, 24 h) of 0.058 ± 0.054 µg. For the same molecule, the Accumulative excretion amount (oral CNS 110 mg/kg, 36 h) was 0.411 ± 0.177 µg, the Accumulative excretion percentage (oral CNS 110 mg/kg, 36 h) was 0.087±0.037% and the Excretion amount (oral CNS 110 mg/kg, 36 h) was 0.030 ± 0.037 µg. It also gave an Accumulative excretion amount (oral CNS 110 mg/kg, 48 h) of 0.447 ± 0.206 µg, an Accumulative excretion percentage (oral CNS 110 mg/kg, 48 h) of 0.095±0.044% and an Excretion amount (oral CNS 110 mg/kg, 48 h) of 0.03 ± 0.038 µg. The Accumulative excretion amount (oral CNS 110 mg/kg, 72 h) was 0.460 ± 0.207 µg, the Accumulative excretion percentage (oral CNS 110 mg/kg, 72 h) was 0.097±0.044% and the Excretion amount (oral CNS 110 mg/kg, 72 h) was 0.013 ± 0.017 µg. The Accumulative excretion amount (oral CNS 110 mg/kg, 96 h) was 0.468 ± 0.217 µg, the Accumulative excretion percentage (oral CNS 110 mg/kg, 96 h) was 0.099±0.046% and the Excretion amount (oral CNS 110 mg/kg, 96 h) was 0.008 ± 0.012 µg. The Accumulative excretion amount (oral CNS 110 mg/kg, 120 h) was 0.472 ± 0.219 µg, the Accumulative excretion percentage (oral CNS 110 mg/kg, 120 h) was 0.100±0.046% and the Excretion amount (oral CNS 110 mg/kg, 120 h) was 0.004 ± 0.005 µg. It also gave an Accumulative excretion amount (oral NS 60 mg/kg, 2 h) of 0.304 ± 0.161 µg, an Accumulative excretion percentage (oral NS 60 mg/kg, 2 h) of 0.064±0.030% and an Excretion amount (oral NS 60 mg/kg, 2 h) of 0.304 ± 0.161 µg. It also gave an Accumulative excretion amount (oral NS 60 mg/kg, 4 h) of 0.390 ± 0.199 µg, an Accumulative excretion percentage (oral NS 60 mg/kg, 4 h) of 0.072±0.037% and an Excretion amount (oral NS 60 mg/kg, 4 h) of 0.129 ± 0.051 µg. For the same molecule, the Accumulative excretion amount (oral NS 60 mg/kg, 6 h) was 0.509 ± 0.225 µg, the Accumulative excretion percentage (oral NS 60 mg/kg, 6 h) was 0.096±0.042% and the Excretion amount (oral NS 60 mg/kg, 6 h) was 0.143 ± 0.125 µg. For the same molecule, the Accumulative excretion amount (oral NS 60 mg/kg, 8 h) was 0.625 ± 0.321 µg, the Accumulative excretion percentage (oral NS 60 mg/kg, 8 h) was 0.127±0.059% and the Excretion amount (oral NS 60 mg/kg, 8 h) was 0.173 ± 0.121 µg. It also gave an Accumulative excretion amount (oral NS 60 mg/kg, 12 h) of 0.721 ± 0.406 µg, an Accumulative excretion percentage (oral NS 60 mg/kg, 12 h) of 0.138±0.075% and an Excretion amount (oral NS 60 mg/kg, 12 h) of 0.096 ± 0.087 µg. It also gave an Accumulative excretion amount (oral NS 60 mg/kg, 24 h) of 0.745 ± 0.403 µg, an Accumulative excretion percentage (oral NS 60 mg/kg, 24 h) of 0.149±0.074% and an Excretion amount (oral NS 60 mg/kg, 24 h) of 0.024 ± 0.015 µg. The Accumulative excretion amount (oral NS 60 mg/kg, 36 h) was 0.782 ± 0.377 µg, the Accumulative excretion percentage (oral NS 60 mg/kg, 36 h) was 0.141±0.070% and the Excretion amount (oral NS 60 mg/kg, 36 h) was 0.044 ± 0.046 µg. For the same molecule, the Accumulative excretion amount (oral NS 60 mg/kg, 48 h) was 0.802 ± 0.380 µg, the Accumulative excretion percentage (oral NS 60 mg/kg, 48 h) was 0.152±0.070% and the Excretion amount (oral NS 60 mg/kg, 48 h) was 0.020 ± 0.022 µg. For the same molecule, the Accumulative excretion amount (oral NS 60 mg/kg, 72 h) was 0.809 ± 0.391 µg, the Accumulative excretion percentage (oral NS 60 mg/kg, 72 h) was 0.156±0.072% and the Excretion amount (oral NS 60 mg/kg, 72 h) was 0.007 ± 0.017 µg. For the same molecule, the Accumulative excretion amount (oral NS 60 mg/kg, 96 h) was 0.814 ± 0.399 µg, the Accumulative excretion percentage (oral NS 60 mg/kg, 96 h) was 0.154±0.074% and the Excretion amount (oral NS 60 mg/kg, 96 h) was 0.005 ± 0.010 µg. It also gave an Accumulative excretion amount (oral NS 60 mg/kg, 120 h) of 0.819 ± 0.408 µg, an Accumulative excretion percentage (oral NS 60 mg/kg, 120 h) of 0.154±0.075% and an Excretion amount (oral NS 60 mg/kg, 120 h) of 0.004 ± 0.010 µg.
